What was measured:
Type in all cases: cell-based
[1] = molecular target: T1, SEQ ID NO:33 with substitution L131S (Homo sapiens, UniProt P36544, F159M/H163T/I152M/L131S/R155K/V154L/W156N/Y151P); assay: Electrophysiology, automated patch clamp in HEK293T cells; conditions: FIG. 10A
T1 construct: expressed in transfected cells; host or cells: Lenti-X 293T (HEK293T) cells, pcDNA3.1(+) plasmid
Experimental: (§1) For HEK293T studies, cDNAs encoding ion channels were cloned into pcDNA3.1 using standard recombination techniques. HEK293T cells from Clontech (Lenti-X™ 293T Cell Line) were cultured in DMEM supplemented with 10% FBS and 1% Pen/Strep to 40-50% confluence using standard cell culture protocols, transfected with ion channel plasmids at a concentration of 18 μg per 15 cm dish using Fugene 6, and grown for an additional 24 hours. Cells were then assayed on a medium throughput electrophysiological system (IonFluxHT and/or Mercury, Fluxion Biosciences) in which dose-response relationships may be assessed through a microfluidics-based platform for establishing whole cell configurations. Ensemble plates were primed with extracellular buffer (140 mM NaCl, 5 mM KCl, 2 mM CaCl2, 1 mM MgCl2, 10 mM HEPES, and 10 mM glucose, pH 7.2 with NaOH, mOsm 310), intracellular buffer (145 mM CsCl, 2 mM CaCl2, 2 mM MgCl2, 10 mM HEPES, and 10 mM EGTA, pH 7.2 with CsOH, mOsm 305), as adapted from Lynagh and Lynch, and test compounds (stocks prepared fresh) diluted in extracellular buffer. Cells were then released from the plate with Accutase, centrifuged, resuspended in extracellular buffer, and loaded into Ensemble plates. Cells were then subjected to a standard protocol for priming, trapping, breaking, and establishing whole cell configuration, with cells held at −60 mV throughout the recording. After recording baseline, progressive doses of test compounds were applied using the IonFlux software to assess dose response relationships. Data were then analyzed off-line using custom Python scripts to convert data to .csv format, re-plot traces, and apply QC measurements to reject unstable recordings (i.e. thresholding based on access resistance and/or standard deviation in baseline, as well as artifact rejection). Peak currents were then calculated and population data were fit using a 4-parameter logistic equation as described by the Hill Equation

[2] = molecular target: T2, SEQ ID NO:33 with substitution L131T (Homo sapiens, UniProt P36544, F159M/H163T/I152M/L131T/R155K/V154L/W156N/Y151P); assay: as above; conditions: FIG. 10D
T2 construct: expressed in transfected cells; host or cells: Lenti-X 293T (HEK293T) cells, pcDNA3.1(+) plasmid
Experimental: as §1

[3] = molecular target: T3, SEQ ID NO:33 with substitution S172D (Homo sapiens, UniProt P36544, F159M/H163T/I152M/R155K/S172D/V154L/W156N/Y151P); assay: as above; conditions: FIG. 10B
T3 construct: expressed in transfected cells; host or cells: Lenti-X 293T (HEK293T) cells, pcDNA3.1(+) plasmid
Experimental: as §1

[4] = molecular target: T4, SEQ ID NO:33 with substitution W77M (Homo sapiens, UniProt P36544, F159M/H163T/I152M/R155K/V154L/W156N/W77M/Y151P); assay: as above; conditions: FIG. 10C
T4 construct: expressed in transfected cells; host or cells: Lenti-X 293T (HEK293T) cells, pcDNA3.1(+) plasmid
Experimental: as §1

[5] = molecular target: T5, engineered chimeric LGIC receptor SEQ ID NO:41 (Homo sapiens, UniProt P36544, F159M/H163T/I152M/K68T/N69T/Q70M/R155K/V154L/W156N/Y151P); assay: Plate reader YFP quench plots; conditions: FIG. 7
T5 construct: expressed in transfected cells; host or cells: Lenti-X 293T cells stably expressing YFP (H148Q/I152L) reporter; pcDNA3.1(+) plasmid
Experimental: Lenti-X 293T cells (LX293T, Clontech) were maintained in DMEM containing 10% FBS and 1% penicillin/streptomycin (Invitrogen). […] The next day, the cells were transiently transfected with 0.1 μg of DNA per well using standard Fugene protocol (Promega). On the day of assay, cells were washed 2 times in 1× extracellular solution (1×ECS: 140 mM NaCl, 5 mM KCl, 1 mM MgCl2, 2 mM CaCl2, 10 mM HEPES, 10 mM glucose, pH 7.2, mOsms 300). After the last wash, 100 μL of 1×ECS was added to the wells and the plate was incubated at 37° C. for 30 min. While incubating the plate, the drugs were diluted to a 2× concentration in 1×ECS-NaI (same components as 1×ECS except the 140 mM NaCl was replaced by 140 mM NaI). The plates were then read on a Flexstation3 (Molecular Devices). Each well, 8 wells at a time, of the plate is read for 2 min using a Flexstation3 (Molecular Devices) as follows: 1) a baseline YFP fluorescence is read for 17 sec, 2) 100 μL of ligand is added, and 3) the changes in YFP fluorescence are then measured every 1.3 sec for the remaining time.
To further tune the responsiveness of the engineered LGIC receptors to native and non-native ligands, the binding pocket of each ligand in the alpha7-nAChR was modeled and the amino acid residues that form the binding pocket were mapped. […]

T3 sequence (P36544 with tags, fused parts or gaps Y151P/I152M/V154L/R155K/W156N/F159M/H163T/S172D): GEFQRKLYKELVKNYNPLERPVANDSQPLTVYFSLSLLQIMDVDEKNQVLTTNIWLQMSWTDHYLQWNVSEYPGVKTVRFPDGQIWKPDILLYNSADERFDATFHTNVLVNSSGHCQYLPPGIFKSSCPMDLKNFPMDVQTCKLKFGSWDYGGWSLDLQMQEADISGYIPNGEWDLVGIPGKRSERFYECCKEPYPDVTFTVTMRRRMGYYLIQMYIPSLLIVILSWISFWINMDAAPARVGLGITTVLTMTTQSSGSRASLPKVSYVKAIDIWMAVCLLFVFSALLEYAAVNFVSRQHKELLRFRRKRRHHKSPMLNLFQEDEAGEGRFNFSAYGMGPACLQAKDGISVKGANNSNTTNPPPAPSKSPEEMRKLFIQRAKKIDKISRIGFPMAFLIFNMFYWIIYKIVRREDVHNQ
T4 sequence (P36544 with tags, fused parts or gaps W77M/Y151P/I152M/V154L/R155K/W156N/F159M/H163T): as the sequence (P36544 with tags, fused parts or gaps Y151P/I152M/V154L/R155K/W156N/F159M/H163T/S172D) above, with W55M, D150S counted along it
T1 sequence (P36544 with tags, fused parts or gaps L131S/Y151P/I152M/V154L/R155K/W156N/F159M/H163T): as the sequence (P36544 with tags, fused parts or gaps Y151P/I152M/V154L/R155K/W156N/F159M/H163T/S172D) above, with L109S, D150S counted along it
T5 sequence (P36544 with tags, fused parts or gaps K68T/N69T/Q70M/Y151P/I152M/V154L/R155K/W156N/F159M/H163T): as the sequence (P36544 with tags, fused parts or gaps Y151P/I152M/V154L/R155K/W156N/F159M/H163T/S172D) above, with K46T, N47T, Q48M, D150S counted along it
T2 sequence (P36544 with tags, fused parts or gaps L131T/Y151P/I152M/V154L/R155K/W156N/F159M/H163T): as the sequence (P36544 with tags, fused parts or gaps Y151P/I152M/V154L/R155K/W156N/F159M/H163T/S172D) above, with L109T, D150S counted along it

**Q.** What does the source list for `c1cnc2c(c1)C[C@@]1(CN3CCC1CC3)O2` [AZD-0328]?
**A.** right-ward shift in EC50 relative to parental chimera SEQ ID NO:33 [1]: 2 fold; right-ward shift in EC50 relative to parental chimera SEQ ID NO:33 [2]: ~1 log; right-ward shift in EC50 relative to parental chimera SEQ ID NO:33 [3]: 2 fold; right-ward shift in EC50 relative to parental chimera SEQ ID NO:33 [4]: > 2.5 log; response of Chimera #41 compared with Chimera #33 [5]: responds to lower doses

From patent US10538571B2, “Compositions and methods for neurological diseases” (Coda Biotherapeutics, Inc., priority 2017, dated 2020)
